# Source: US20040054195A1, “Xanthene derivatives” (priority 2003, published 2004)
# Values joined by “and” are separate entries in the source; they are usually repeats but may differ in a detail not shown here. Equal entries are not always repeated.
# Tests used:
# [1] = Photostability study: irradiation with a 200 W soft white bulb, fluorescence of aliquots vs. time; format: physicochemical; conditions: 50 nM in pH 10 borate buffer, 200 watt soft white bulb at 10 cm, excitation at 459 nm, FIG. 4
# Method: FIG. 4. Photostability comparison vs. time (hour) of 5 (*), 8 (▪), fluorescein (Δ) and BODIPY FL (♦); concentration 50 nM in pH 10 borate buffer. Excited at 459 nm for 5 and 8, 488 nm for fluorescein, 505 nm for BODIPY FL.
# The photostability study was conducted by irradiating a 50 nM pH 10 sample solution of each dye (1, BODIPY-FL, 5 and 8) using a Hotspot lamp (Cheltenham, Pa.) with a 200W soft white bulb (General Electric, Canada), positioned at a distance of 10 cm between the sample and the bulb. The sample solution was cooled by circulating room temperature water. Fluorescence spectra were recorded on aliquots taken as a function of time.
# [2] = UV absorbance spectrum in pH 10 borate buffer; format: physicochemical; conditions: 10 μM, inset of FIG. 3
# Method: FIG. 3. Fluorescence spectra. Curve A: BODIPY FL in pH 10 buffer, 50 nM, excited at 505 nm, excitation and emission slit 2.5 nm; Curve B: fluorescein in pH 10 borate buffer, 50 nM, excited at 488 nm, excitation and emission slit 2.5 nm; Curve C: compound 8 in pH 10 borate buffer, 50 nM, excited at 459 nm, excitation slit 2.5 nm, emission slit 8 nm; Curve D: compound 8 in methanol, 50 nM, excited at 459 nm, excitation slit 2.5 nm, emission slit 8 nm; Inset is UV spectrum of 8 in pH 10 borate buffer, 10 μM, peak absorption wavelength: 459 nm and 483 nm.
# In FIG. 3 the fluorescence spectra of fluorescein, a BODPIY FL dye (Molecular Probes Inc., Eugene Oreg.), and xanthamide dye 8 are compared. Fluorescein and BODIPY dyes are popular, and many instruments have been set up for their measurement. Thus it is attractive that xanthamide dye 8 has a similar fluorescence emission relative to that of fluorescein and a typical BODIPY dye. […] This adds to the practicality of 8.
Compound,photostability relative to fluorescein and a typical BODIPY dye [1],absorbance maxima [2]
"CN(C)C(=O)c1ccccc1-c1c2ccc(=O)cc-2oc2cc(OCC(=O)O)ccc12 [compound 5, [9-(2-Dimethylcarbamoyl-phenyl)-6-oxo-6H-xanthen-3-yloxy]-acetic acid]",very good photostability,–
"COc1ccc2c(-c3ccccc3C(=O)N3CCC(C(=O)O)CC3)c3ccc(=O)cc-3oc2c1 [compound 8, 1-[2-(6-Methoxy-3-oxo-3H-xanthen-9-yl)-benzoyl]-piperidine-4-carboxylic acid]",remarkable photostability,459 nm and 483 nm
